According to patent publication US10100005B1 (Eclipse Therapeutics, LLC, priority 2017, dated 2018):

How the values were obtained:
Type in all cases: physicochemical
[1] = Solubility testing in sodium phosphate buffer; details: thermodynamic from solid; aqueous buffer, 0.02 molar dibasic sodium phosphate; sonicated, undissolved solid weighed
Procedure: Compounds of Formulas I and II, prepared as described in the examples above, were tested to determine their solubility in a sodium phosphate buffer.
An aqueous buffer solution comprising 0.02 molar dibasic sodium phosphate was prepared. A weighted amount of solid was sonicated in the buffer, and then centrifuged to collect the undissolved material. The undissolved solid was dried in vacuuo and weighed. The mass of the undissolved portion was then used to calculate the mass that was successfully dissolved in the known volume of buffer.

[2] = In vitro testing: mesalamine (5-ASA) evolution from 5-glyoxyliminosalicylic acid in buffered saline, by HPLC
Procedure: The vial was held at ambient temperature for 22.75 hours and sampled. […] No other peaks were present.
Without being bound to a particular theory, it is believed that for 5-glyoxyliminosalicylic acid, the presence of chloride greatly increases the rate of mesalamine evolution.

[3] = Solution stability in aqueous sodium phosphate buffer (visual, photographs); details: for appearance of solution after storage: 11 mg in 5 ml 0.02 molar dibasic sodium phosphate buffer, ambient temperature, 3 days
Procedure: An aqueous buffer solution comprising 0.02 molar dibasic sodium phosphate was prepared. An 11 mg sample of 5-glyoxyliminosalicylic acid (Formula Ia-i) was added to a vial containing 5 ml of the buffer solution. […] Both vials were stored at ambient temperature.

[4] = In vitro testing: decomposition to 5-ASA in phosphate buffer (pH 6.5), by infusion MS and LCMS; details: 10 mg in 10 ml phosphate buffer (pH 6.5) overnight
Procedure: 10 mg of 5-ethylglyoxyliminosalicylic acid (prepared as described in Example 4 above) was stored in 10 ml phosphate buffer (pH 6.5) overnight.

With `COc1cc(/C=N\c2ccc(O)c(C(=O)O)c2)ccc1O` [Formula IIa-i, 5-vanilliniminosalicylic acid] the solubility [1] was 3.45 mg/mL.
For `COc1cc(/C=N\c2ccc(C(=O)O)c(O)c2)ccc1O` [Formula IIb-i, 4-vanilliniminosalicylic acid], the solubility [1] was 7.35 mg/mL.
For `O=C(O)/C=N\c1ccc(O)c(C(=O)O)c1` [Formula Ia-i, 5-glyoxyliminosalicylic acid], the “percentage of 5-aminosalicylic acid by HPLC” value ([2]; 12 mg compound + 12 mg 5-aminosalicylic acid in 6 ml buffered saline, ambient temperature, 22.75 hours, no other peaks) was 87%, the mesalamine evolution ([2]; same experiment in the absence of saline) was “very little mesalamine evolution” and the solubility [1] was 11 mg/mL. The “appearance of solution after storage” value [3] was “still clear and lightly colored” and the “storage stability relative to mesalazine” value ([3]; dissolved in aqueous sodium phosphate buffer, 3 days ambient) was “significantly greater degree of storage stability than mesalazine”.
Compound `CCOC(=O)/C=N\c1ccc(O)c(C(=O)OCC)c1` [Formula Ia-ii, ethyl 5-ethylglyoxyliminosalicylate] has a solubility [1] of 0.13 mg/mL.
With `CCOC(=O)/C=N\c1ccc(O)c(C(=O)O)c1` [Formula Ia-iii, 5-ethylglyoxyliminosalicylic acid] the solubility [1] was 12 mg/mL, the “decomposed to 5-ASA (LCMS, single ion monitoring)” value [4] was roughly 90% and the “decomposition to release 5-ASA (infusion MS)” value [4] was “partially decomposed”.
`O=C(O)/C=N/c1ccc(C(=O)O)c(O)c1` [Formula Ib-i, 4-glyoxyliminosalicylic acid] showed a solubility [1] of 17.3 mg/mL.
In the case of `CCOC(=O)C=Nc1ccc(C(=O)O)c(O)c1` [Formula Ib-ii, 4-ethylgloxyliminosalicylic acid], the solubility [1] is reported as 10.2 mg/mL.
For `Nc1ccc(O)c(C(=O)O)c1` [Mesalazine, 5-aminosalicylic acid, reference compound], the “appearance of solution after storage” value [3] was “turned a dark brown color, and a significant amount of brown solid material precipitated”.
